{
  "source": "patent US9795570B2",
  "about": "“Modulation of macrophage phenotype by emodin” (University of South Carolina, priority 2016, dated 2017)",
  "key": {"[1]": {"tested_on": "mouse peritoneal macrophages", "assay": "NO production assay", "assay_type": "cell-based", "conditions": "LPS/IFNγ 24 h, emodin 0-50 μM", "protocol": "Macrophages were stimulated with LPS+IFNγ for 24 h with various concentrations of emodin (0-50 μM). The culture media was then collected and the NO content was detected using a Nitrite/Nitrate colormetric kit (Sigma-Aldrich) according to the manufacturer's instructions. The assay was read using a Spectramax M5 microplate reader (Molecular Devices, Sunnyvale, Calif.)."}, "[2]": {"tested_on": "H3K27m3 and H3K27ac", "assay": "Histone modifications H3K27m3/H3K27ac (western blotting, ChIP assay)", "assay_type": "cell-based, mouse", "protocol": "Following stimulation with IL4 or LPS+IFNγ with or without emodin for varying periods, macrophages were lysed with cell signaling lysis buffer (Millipore) for whole cell lysates. Cytoplasmic and nuclear extracts were prepared using the Epiquik Nuclear Extraction kit (Epigentek, Farmingdale, N.Y.). Total protein was separated on 4-20% Tris-glycine pre-cast gels (Pierce) and transferred onto Nitrocellulose membranes (Bio-Rad Life Science, Hercules, Calif.). The membranes were then probed with HRP conjugated secondary antibodies, and signals were detected using Pierce ECL Western Blotting Substrate (Pierce).\nMacrophages were stimulated with IL4 or LPS+IFNγ for 24 h with or without emodin. They were then fixed in 1% formaldehyde. Excess formaldehyde was quenched with glycine and the cells were collected in PBS by scraping. The cells were lysed (0.5% IGEPAL, 4 mM HEPES) and the nuclei were resuspended in nuclear lysis buffer (1% SDS, 10 mM EDTA, and 50 mM Tris, pH 8.1). The DNA was sheared by sonication using a Diagnode Bioruptor Pico for 15 cycles of 30 s on/30 s off. Then 10 μg chromatin was diluted 1:10 (0.01% SDS, 1.1% Triton X-100, 1.2 mM EDTA, 16.7 mM Tris-HCl, pH 8.1, 167 mM NaCl) and 2% of the input was removed from each sample and saved for analysis. Anti-H3K27m3 or anti-H3K27ac (Abcam) was added to each sample along with 20 μl of protein A+G magnetic beads (Millipore) and the samples were incubated overnight at 4° C. The beads were washed with low salt, high salt, LiCl, and TE wash buffers sequentially and the DNA was eluted off the beads with Proteinase K at 62° C. for 2 h (elution buffer: 200 mM NaCl, 1% SDS and 50 mM Tris). The DNA was then analyzed by real time PCR."}, "[3]": {"tested_on": "EO771 tumors", "assay": "EO771 breast tumor model in C57BL/6 mice", "assay_type": "in vivo", "protocol": "C57BL/6 and BALB/c mice (8-12 weeks, female) were purchased from Jackson Labs (Bar Harbor, Me.). They were housed at the University of South Carolina Animal Research Facility, and all procedures were approved by the Institutional Animal Care and Use Committee. EO771 or 4T1 cells (2×10^5) in 20 μL of PBS were injected into the 4th pair of mammary glands on C57BL/6 mice or BALB/C, respectively, on Day 0. Starting on Day 1, emodin (40 mg/kg) or vehicle (2% DMSO) was injected intraperitoneally in 1 ml PBS once daily. The tumor size was measured using a caliper every 2-4 days, and the tumor volume was calculated using a formula: V (mm^3)=L (major axis)×W^2 (minor axis)/2. Mice were sacrificed at various time points.\nAt sacrifice, tumors were embedded in OCT. They were then cut into 8 μm thick frozen sections and placed on slides. For immunohistochemistry staining, the sections were fixed with 4% paraformaldehyde for 10 min, and then blocked with 0.01 M glycine containing 0.1% Triton x-100. Next, the sections were blocked with 5% BSA. They were then incubated in primary antibody overnight at 4° C.: anti-F4/80 (1:50, Biolegend), anti-pSTAT6 (1:50, Cell Signaling), or anti-C/EBPβ (1:50, Santa Cruz). The sections were washed with PBS and then incubated with secondary antibodies for 1 h at room temperature. The sections were then stained with DAPI (1 μg/mL) and coverslipped with DABCO. Slides were imaged using a Zeiss LSM 510 Confocal microscope (Zeiss, Peabody, Mass.). For quantitative analysis, the number of positive cells was manually counted in six random fields of view per section. CD31 staining was performed according to standard methodology. Slides were imaged on a Nikon ECLIPSE E600 microscope (Nikon, Melville, N.Y.) at 200× magnification (10 fields per section). The integrated optical density (IOD) of CD31 was quantified using Image-Pro Plus software.\nMacrophages or T cells were isolated from 4T1 tumors from mice sacrificed at 6 weeks post implantation or from EO771 tumors 5 weeks post implantation, using EasySep™ Mouse PE Positive Selection Kit (Stem Cell Technologies, Vancouver, BC). For cell isolation, 1×10^7-1×10^8 cells were incubated with 20 μL PE conjugated anti-F4/80 (Biolegend) for macrophages or 20 μL PE conjugated anti-CD3 for T cells and 50 μL microbeads. The T cells and macrophages were lysed in Qiazol and used for RT-PCR analysis. For ChIP assays, 5-10×10^6 macrophages were fixed in 1% formaldehyde."}, "[4]": {"tested_on": "T cells co-cultured with TCM treated macrophages", "assay": "Macrophage - T cell co-culture (activation and proliferation)", "assay_type": "cell-based, mouse", "protocol": "Peritoneal macrophages were seeded into 10 cm plates and treated with EO771 conditioned medium with or without emodin for 24 h. The cells were then washed with PBS and resuspended. T cells were isolated from the spleens of C57BL/6 mice using EasySep T cell isolation kit (Stem Cell Technologies) according to the manufacturer's instructions. For the proliferation assay, T cells were labeled with CSFE and then mixed with macrophages and CD3/CD28 DYNA beads in a 1:1:1 ratio and added to 12 well plates in triplicate. For the activation assay, the T cells were collected after 24 h and stained with anti-CD3, anti-CD4, and anti-CD69 for 30 min at 4° C. The cells were then analyzed on a BD FACS flow cytometer. For the proliferation assay, T cells were collected after 72 h and stained with anti-CD3 and anti-CD4. The cells were analyzed for CSFE depletion on a Beckman Coulter FC500."}, "[5]": {"tested_on": "peritoneal macrophages and 4T1 cells", "assay": "Tumor cell-macrophage adhesion", "assay_type": "cell-based, mouse", "protocol": "Tumor cell monolayers (80-90% confluent) and macrophages were treated with emodin (0-25 μM) overnight. The cells were then washed multiple times with PBS, and fresh SF DMEM was added. Macrophages were resuspended with scraping and 5×10^5 cells were seeded onto the tumor cell monolayers. After 1 h the non-adherent cells were washed away, and the adherent cells were resuspened with Trypsin and mild scraping. The total number of cells was counted, and cells were stained with anti-F4/80 FITC (Biolegend). The cells were analyzed on a Beckman Coulter FC500."}, "[6]": {"conditions": "40 mg/kg IP once daily from Day 1"}},
  "data": [
    {"compound": "Cc1cc(O)c2c(c1)C(=O)c1cc(O)cc(O)c1C2=O", "note": "[emodin]", "values": [
      {"measurement": "NO production", "setting": "[1]", "value": "dose dependently inhibited"},
      {"measurement": "IL4-induced decrease of H3K27m3 in the promoter of IRF4, Arg1 and YM1 genes", "setting": "[2]; ChIP assay", "value": "reversed"},
      {"measurement": "LPS/IFNγ-induced decrease of H3K27m3 in the promoter of iNOS, TNFα and IL6 genes", "setting": "[2]; ChIP assay", "value": "attenuated"},
      {"measurement": "induced increase of H3K27ac in promoters (LPS/IFNγ: iNOS, TNFα, IL6; IL4: IRF4, YM1)", "setting": "[2]; ChIP assay", "value": "suppressed"},
      {"measurement": "global expression of H3K27m3 or H3K27ac", "setting": "[2]; western blotting, LPS/IFNγ or IL4, emodin 50 μM 24 h", "value": "no effect"},
      {"measurement": "primary tumor growth", "setting": "[3]; [6]", "value": "significant inhibition"},
      {"measurement": "tumor weight at the endpoint", "setting": "[3]; [6]", "value": "significant inhibition"},
      {"measurement": "M1 marker (iNOS) expression in TAMs", "setting": "[3]; F4/80+ cells from tumors, qPCR", "value": "significantly higher"},
      {"measurement": "M2 marker (Arg1 and CD206) expression in TAMs", "setting": "[3]; F4/80+ cells from tumors, qPCR", "value": "significantly lower"},
      {"measurement": "reduction of the number of tumor infiltrating macrophages (F4/80)", "setting": "[3]; experimental endpoint, 40 mg/kg IP", "value": 70, "unit": "%"},
      {"measurement": "CD31 staining in tumors, relative to control", "setting": "[3]; microvessel density, 5 weeks post injection", "value": "~50", "unit": "%"},
      {"measurement": "expression of inflammatory cytokines IL1β and TNFα in TAMs", "setting": "[3]; qPCR, without statistical significance", "value": "higher expression levels"},
      {"measurement": "T cell proliferation (CSFE depletion)", "setting": "[4]; TCM and emodin co-treated macrophages, 72 h", "value": "restored T cell proliferation"},
      {"measurement": "suppression of T cell activation (CD69 on CD4 T cells) by TCM treated macrophages", "setting": "[4]; macrophages pre-treated with emodin along with TCM 24 h, co-culture 24 h", "value": "completely blocked the suppression"},
      {"measurement": "adhesion of macrophages to a monolayer of tumor cells", "setting": "[5]; emodin treatment of both macrophages and tumor cells", "value": "decreased the adhesion even further"},
      {"measurement": "adhesion of macrophages to a monolayer of tumor cells", "setting": "[5]; emodin treatment of either macrophages or tumor cells", "value": "significantly inhibited"}
    ]}
  ]
}
